# Laboratory results: PubChem BioAssay (NCI)
# Several values for one entry are separate records, joined by “and”; a condition that tells them apart may be missing. Equal values may be shown once.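 Method: 48-hour compound exposure of cells in 96-well plates, five concentrations, linear interpolation of endpoints. The concentration for 50% growth inhibition is given as GI50. Definition used: TGI = concentration required for complete inhibition of growth.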
# What was measured:
# Assay in all cases: inhibition of tumour cell growth, NCI panel, 48 h
# DU-145 prostate = test system: DU-145 prostate
# HL-60(TB) leukemia = test system: HL-60(TB) leukemia
# KM12 colon = test system: KM12 colon
# MALME-3M melanoma = test system: MALME-3M melanoma
# MDA-MB-435 = test system: MDA-MB-435
# RXF 393 renal = test system: RXF 393 renal
# SNB-75 CNS = test system: SNB-75 CNS
# UACC-257 melanoma = test system: UACC-257 melanoma
# UACC-62 melanoma = test system: UACC-62 melanoma
# UO-31 renal = test system: UO-31 renal
SMILES,GI50 (DU-145 prostate) [µM],TGI (DU-145 prostate),GI50 (HL-60(TB) leukemia) [nM],TGI (HL-60(TB) leukemia),GI50 (KM12 colon) [µM],TGI (KM12 colon),GI50 (MALME-3M melanoma) [µM],TGI (MALME-3M melanoma),GI50 (MDA-MB-435) [nM],TGI (MDA-MB-435),GI50 (RXF 393 renal) [µM],TGI (RXF 393 renal),GI50 (SNB-75 CNS) [µM],TGI (SNB-75 CNS),GI50 (UACC-257 melanoma) [µM],TGI (UACC-257 melanoma),GI50 (UACC-62 melanoma) [µM],TGI (UACC-62 melanoma),GI50 (UO-31 renal) [µM],TGI (UO-31 renal)
CC(=O)O[C@H]1C[C@@H]2[C@@]3(C)CC[C@H]4C[C@@]4(C)[C@@H]3CC[C@@]2(C)C2=CCC3=C(COC3=O)[C@]21C,15.6,38.5 µM,52700,> 100 µM,18.7,43.6 µM,11,26.4 µM,22600,46.9 µM,21.2,52.6 µM,23.1,51.2 µM,34.2,> 100 µM,16.6,36.4 µM,32.1,> 100 µM
O=C1NC(=O)C2C3C=CC(C12)C1C2C(=O)NC(=O)C2C31 (configuration not stated),> 619,> 1000 µM,–,206 µM and > 1000 µM,> 1000,250 µM and > 1000 µM,> 785,250 µM and > 1000 µM,> 250000,> 1000 µM,> 1000,250 µM and > 1000 µM,291,249 µM and > 856 µM,> 1000,250 µM and > 1000 µM,636,227 µM and > 1000 µM,596,250 µM and > 1000 µM
CCCCCCCCCCCCOC1C(C(COC2OC(C(O)CO)C3OC(C)(C)OC23)OC(=O)Nc2ccccc2)OC2OC(C)(C)OC21 (configuration not stated),10,22.8 µM,484,1.6 µM,2.99,8.76 µM,9.2,23.2 µM,7720,21.6 µM,4.33,12.6 µM,5.2,16.9 µM,9.94,25.2 µM,10.5,22.5 µM,9.01,23.7 µM
O=[N+]([O-])c1ccc(/C=C(/c2ccc([N+](=O)[O-])o2)S(=O)(=O)c2ccccc2)cc1,–,> 100 µM,–,74.1 µM,–,> 100 µM,–,87.5 µM,–,> 100 µM,–,> 100 µM,–,> 100 µM,–,> 100 µM,–,75.7 µM,–,> 100 µM
CCOC(=O)C#Cc1c(C(=O)OCC)nnn1[C@@H]1O[C@H](COC)[C@@H](OC)[C@H]1OC,10.6,22.4 µM,1980,5.41 µM,16.7,33.3 µM,1.95,3.9 µM,12100,24.5 µM,1.97,4.14 µM,11.9,24.2 µM,3.38,8.29 µM,2.19,5.41 µM,1.88,4.38 µM
CN(C)CCCC1(c2ccc(F)cc2)OCc2cc(-c3csc4ccccc34)ccc21 (configuration not stated),1.72,3.15 µM,1770,3.7 µM,1.71,3.16 µM,1.43,2.94 µM,1730,3.19 µM,1.54,2.95 µM,1.35,2.8 µM,1.78,3.49 µM,1.69,3.13 µM,1.25,2.62 µM
N#C[Se]CCN1C(=O)c2ccccc2C1=O,2.58,7.77 µM,2230,5.71 µM,3.14,45.3 µM,1.82,13.4 µM,1730,3.83 µM,1.37,2.86 µM,2.09,5.56 µM,2.51,11 µM,1.52,3.74 µM,2.09,7.92 µM
N=C(N)SCc1ccc(Cl)c2ccccc12 (tested in a mixture with another compound),–,27.7 µM and 25.9 µM,–,12.6 µM and 17.8 µM,–,28.3 µM and 27.7 µM,–,22.1 µM and 23.4 µM,–,21.5 µM and 22.2 µM,–,20.5 µM and 22.7 µM,–,23.1 µM and 19.2 µM,–,13.8 µM and 12.9 µM,–,26.4 µM and 25.6 µM,–,24.3 µM and 26.3 µM
COc1cc2c3c(n(CCCN)c(=O)c2cc1OC)-c1ccc(N)cc1C3=O,1.64,9.03 µM,461,4.91 µM,9.26,> 74.2 µM,5.85,26.4 µM,3060,17 µM,1.07,7.22 µM,1.75,12.3 µM,13.7,50.3 µM,1.08,10.7 µM,37.2,> 100 µM
COc1cc(/C=C/c2cc(/C=C/c3ccc(O)c(OC)c3)n(C(=O)Nc3ccc(C)cc3)n2)ccc1O,0.448,2.32 µM,261,0.657 µM,0.345,3.18 µM,0.924,3.57 µM,115,0.391 µM,0.381,1.41 µM,0.321,1.36 µM,1.06,4.95 µM,0.519,2.61 µM,0.272,1.72 µM
CN1CCN(C(=O)/C=C/c2ccc([N+](=O)[O-])o2)CC1,9.33,21.2 µM,10700,34 µM,24,> 100 µM,3.76,14.3 µM,3120,14.9 µM,2.88,12.4 µM,21.6,75.8 µM,7.78,21.2 µM,11.1,23.4 µM,13.4,30.1 µM
O=C(CCN1CCOCC1)Nc1ccc(Cn2nnc3c2C(=O)c2nnn(Cc4ccc(NC(=O)CCN5CCOCC5)cc4)c2C3=O)cc1,18.6,> 52.4 µM,1140,4.63 µM,–,–,0.247,0.747 µM,324,0.799 µM,> 100,> 100 µM,1.93,3.6 µM,1.64,3.57 µM,1.53,3.14 µM,> 100,> 100 µM
COc1cc(NC(=O)COc2ccccc2)c(C(N)=O)cc1OC,0.914,> 100 µM,293,7.25 µM,0.442,> 100 µM,4,> 100 µM,203,0.875 µM,1.69,9.52 µM,0.547,11.9 µM,> 100,> 100 µM,2.52,> 100 µM,13.5,> 100 µM
CNCc1cccc2c1OCCOCCOCCNS(=O)(=O)c1ccc(cc1)-c1cnc(N)c(n1)C(=O)N2,1.24,3.36 µM,452,1.89 µM,1.22,2.98 µM,1.55,3.08 µM,1350,2.74 µM,0.353,1.72 µM,0.353,5.26 µM,1.93,4.68 µM,1.61,2.99 µM,9.82,23.1 µM
O=C1NC(c2ccccc2Cl)Nc2ccccc21 (configuration not stated),–,> 100 µM,–,16.4 µM,–,> 100 µM,–,> 100 µM,–,4.76 µM,–,63.1 µM,–,49.1 µM,–,> 100 µM,–,> 100 µM,–,> 100 µM
O=c1c(Oc2ccc(F)cc2F)cc2cnc(NC3CCOCC3)nc2n1C1CC1,> 25,> 25 µM,> 25000,> 25 µM,> 25,> 25 µM,> 25,> 25 µM,> 25000,> 25 µM,> 17.1,> 25 µM,> 25,> 25 µM,> 25,> 25 µM,> 25,> 25 µM,2.21,10.2 µM
COc1ccccc1CNCCCN1C(=O)c2ccc3c4c(ccc(c24)C1=O)C(=O)N(CCCNCc1ccccc1OC)C3=O,0.163,0.309 µM,212,0.453 µM,0.116,0.272 µM,0.155,0.32 µM,179,0.349 µM,0.142,0.281 µM,0.283,0.754 µM,0.184,0.349 µM,0.198,0.407 µM,0.196,0.458 µM
CC(C)c1ccc2c(c1)CCC1C2CCCC1(C)NCc1ccccc1 (configuration not stated),8.61,24.3 µM,2340,6.85 µM,3.07,11.6 µM,1.92,4.18 µM,2790,9.64 µM,2.44,4.66 µM,8.77,21.3 µM,2.52,6.13 µM,1.96,4.39 µM,6.76,21.1 µM
OCc1ccc(N2CCc3ccc(F)cc3C2)cc1Cl,7.06,21.2 µM,1120,14.5 µM,10.5,26 µM,12.1,26.9 µM,8690,22 µM,0.373,12.1 µM,11.5,25.3 µM,0.0279,0.101 µM,0.0405,0.248 µM,1.52,17.3 µM
OC[C@H]1C[C@](O)(c2ccc(F)cc2)[C@@H](c2ccc(F)cc2)O1,> 100,> 100 µM,> 100000,> 100 µM,> 100,> 100 µM,> 100,> 100 µM,> 100000,> 100 µM,52.7,> 100 µM,> 100,> 100 µM,> 100,> 100 µM,> 100,> 100 µM,> 100,> 100 µM
CCN1CCN(CC(=O)Nc2nc3ccc(NCc4ccc(Br)cc4)cc3s2)CC1,5.14,> 100 µM,1950,3.81 µM,3.25,> 100 µM,1.66,3.19 µM,1690,3.23 µM,1.63,3.25 µM,1.59,3.29 µM,2.28,5.14 µM,1.9,3.52 µM,1.78,3.4 µM
O=C1[C@H](Cc2ccc(O)cc2)N2C(=O)CCN(C(=O)NCc3ccccc3)[C@H]2CN1Cc1cccc2ccccc12,4.55,46.5 µM,4840,27.3 µM,3.1,15.3 µM,1.9,9.46 µM,3960,21.4 µM,3.8,14.5 µM,0.399,25.3 µM,2.72,23.9 µM,4.45,25 µM,11.3,77.9 µM
COc1ccc(Cn2c(Br)c3c(c2-c2cc(OC)c(OC)c(OC)c2)CCc2sc(N)nc2-3)cc1,2.04,7.43 µM,465,3.67 µM,1.18,> 30 µM,0.438,28.5 µM,224,0.537 µM,0.448,14.8 µM,0.688,31.8 µM,11.8,51.3 µM,0.598,15 µM,1.5,17.9 µM
C/C(=C\c1csc(C)n1)[C@@H]1C[C@@H]2O[C@]2(C)CCC[C@H](C)[C@H](O)[C@@H](C)C(=O)C(C)(C)[C@@H](O)CC(=O)N1,0.000166,0.000254 µM,0.083,0.000163 µM,0.000141,0.000354 µM,0.000376,0.000603 µM,0.0655,0.000143 µM,–,–,0.00161,0.048 µM,0.000138,0.000277 µM,0.000171,0.000412 µM,0.000126,0.000177 µM
N#CC1=C(N)Oc2c(ccc3ccccc23)C1c1cc2ccccc2n2nnnc12 (configuration not stated),2.77,> 100 µM,260,16.7 µM,0.628,> 100 µM,0.852,> 100 µM,300,1.01 µM,1.4,6.59 µM,–,–,9.09,> 100 µM,0.451,> 100 µM,0.725,> 100 µM
CC1(C)CC2=NO[Se]3=C2C(=NO3)C1,–,10.4 µM,–,5.08 µM,–,13.8 µM,–,–,–,15.5 µM,–,9.18 µM,–,6.96 µM,–,5.64 µM,–,6.63 µM,–,8.73 µM
